Reference: US20210236412A1, “COSMETIC COMPOSITION OF NON-AQUEOUS THIXOTROPIC NAIL VARNISH CONTAINING A NAIL-HARDENING AGENT, USE AND IMPLEMENTATION METHOD” (FIABILA, priority 2018, published 2021)

Tests used:
[1] = test system: nails of the hand; assay: In vivo test of nail hardening on panels of 30 persons; set-up: species or system human; settings: 0.05% by weight in the varnish composition, three weeks
Source text: The varnish was applied under normal conditions of use (namely one application every three days, after having removed the previous varnish). Comparative composition 5 contained 0.05% of hexane, comparative composition 6 contained 0.05% by weight of citral, comparative composition 9 contained 0.05% by weight of caproic acid and composition 7 according to the present invention contained 0.05% by weight of sorbic acid. […] The respective compositions and also the results of the physical tests and observed by the panelists are collated in table 2 hereinafter.

[2] = assay type: physicochemical
Experimental: (§1) Various cosmetic compositions in the form of nail varnish of the organic-solvent-based varnish type were prepared and applied to nails. The tests hereinafter were performed on these varnishes: • Gloss: 100 μm of varnish was applied to a Leneta-type panel. After drying, the gloss was measured at an angle of incidence of 60° using a Minolta 268 glossmeter. • Flexibility: An aluminum plate covered with a varnish of 300 μm wet is subjected to a slow stamping and the depth of the penetration is measured (ISO1520). • Varnish hardness: It was measured using a Persoz pendulum on a glass plate covered with a varnish with a thickness of 100 μm wet, after drying at room temperature, according to the ISO1522 standard. • Adhesion: A “cross hatch test” is carried out on a glass plate. A score of 0 corresponds to an absence of loss of adhesion. A score of 5 corresponds to a total loss of adhesion. • Solids content: Between 0.5 and 1 g of varnish is poured into a dish. […] The stability of this shade, and more specifically the appearance or not of any syneresis, is observed. • Odor: The odor of the varnish is compared to that of a varnish not containing any hardening agent. • Viscosity: The viscosity of the product is measured at 25° C. using a Brookfield viscometer. […]

[3] = Viscosity, Brookfield viscometer; assay type: physicochemical; settings: concentrations of less than 1% by weight
Experimental: as §1

[4] = Sedimentation stability and color fastness of tinted varnish; assay type: physicochemical; settings: 0.1% by weight in the varnish; one month at 45° C.
Experimental: Various cosmetic compositions in the form of nail varnish of the organic-solvent-based varnish type were prepared and applied to nails. […] The color of the varnish is then compared to a reference varnish not containing any hardening agent. • Sedimentation stability: A tinted varnish composition containing pearlescent agent and a coloring solution is prepared and is placed in an oven for 1 month at 45° C. A visual observation is made to check whether the pearlescent agent has or has not sedimented out. • Shade stability: A tinted varnish containing a mixture of the following pigments: titanium dioxide, Red 34 and ferric ferrocyanide blue, is placed in an oven at 45° C. for 30 days.
firstly, a pearlescent agent: titanium oxide-coated mica sold under the name Flamenco Gold, 6-48 μm, by BASF,
and, secondly, Pigment Red 34: organic pigment sold by Sun Chemical.
This pigment was ground in order to be able to be incorporated. The grinding procedure included mixing the solvents with the pigment, stirring to deagglomerate the pigment, then incorporating the nitrocellulose. Once the latter had dissolved, the plasticizer was incorporated with stirring, which was continued for 20 minutes. […]
Titanium oxide-coated mica (Flamenco Gold, 6-48 μm, from BASF) 2% by weight The stability of the compositions thus prepared was evaluated by visual observation after storage for one month at 45° C.

Structure (SMILES) | subjects who found an overall improvement in the quality and the hardness of their nails [1] | influence on the stability of the varnish composition [2] | maximum amount that can be incorporated into the varnish without causing yellowing [2] | influence on the viscosity of the varnish composition [3] | discoloration of the shade [4]
C/C=C/C=C/C(=O)O [sorbic acid] | more than 83% | does not have any influence | less than 1 % by weight | does not have any influence | 
O=P(O)(O)O [Phosphoric acid] |  |  |  |  | discolors the Pigment Red 34
